The NIST ThermoML archive (doi:10.1021/je0202073)

Columns and labels:
[1] = xn = mol fraction of the nth substance listed; settings: 101.3 kPa, Liquid
[2] = excess molar enthalpy (molar enthalpy of mixing); xn = mol fraction of the nth substance listed; settings: 101.3 kPa, Liquid, Calvet calorimetry

CCOC=O [ethyl methanoate] + CC(C)(C)O
Settings | excess molar enthalpy [kJ/mol] | excess molar volume [m3/mol]
[1], 303.15 K, x1 = 0.0451 | – | 1.65e-06
[1], 303.15 K, x1 = 0.0901 | – | 3.35e-06
[1], 303.15 K, x1 = 0.1537 | – | 5.06e-06
[1], 303.15 K, x1 = 0.1973 | – | 6.07e-06
[1], 303.15 K, x1 = 0.2481 | – | 7.02e-06
[1], 303.15 K, x1 = 0.2631 | – | 7.32e-06
[1], 303.15 K, x1 = 0.3042 | – | 7.9e-06
[1], 303.15 K, x1 = 0.3255 | – | 8.1e-06
[1], 303.15 K, x1 = 0.3448 | – | 8.3e-06
[1], 303.15 K, x1 = 0.3957 | – | 8.6e-06
[1], 303.15 K, x1 = 0.4411 | – | 8.73e-06
[1], 303.15 K, x1 = 0.4445 | – | 8.75e-06
[1], 303.15 K, x1 = 0.4964 | – | 8.79e-06
[1], 303.15 K, x1 = 0.5013 | – | 8.8e-06
[1], 303.15 K, x1 = 0.5084 | – | 8.78e-06
[1], 303.15 K, x1 = 0.5344 | – | 8.7e-06
[1], 303.15 K, x1 = 0.5515 | – | 8.64e-06
[1], 303.15 K, x1 = 0.5677 | – | 8.58e-06
[1], 303.15 K, x1 = 0.5954 | – | 8.35e-06
[1], 303.15 K, x1 = 0.6467 | – | 7.94e-06
[1], 303.15 K, x1 = 0.6956 | – | 7.42e-06
[1], 303.15 K, x1 = 0.7432 | – | 6.59e-06
[1], 303.15 K, x1 = 0.8016 | – | 5.54e-06
[1], 303.15 K, x1 = 0.8477 | – | 4.63e-06
[1], 303.15 K, x1 = 0.9067 | – | 3.28e-06
[1], 303.15 K, x1 = 0.9465 | – | 2.17e-06
[1], 318.15 K, x1 = 0.1022 | – | 4.09e-06
[1], 318.15 K, x1 = 0.1289 | – | 4.86e-06
[1], 318.15 K, x1 = 0.232 | – | 7.07e-06
[1], 318.15 K, x1 = 0.2909 | – | 7.96e-06
[1], 318.15 K, x1 = 0.3356 | – | 8.41e-06
[1], 318.15 K, x1 = 0.4076 | – | 8.97e-06
[1], 318.15 K, x1 = 0.4696 | – | 9.17e-06
[1], 318.15 K, x1 = 0.4934 | – | 9.19e-06
[1], 318.15 K, x1 = 0.5055 | – | 9.2e-06
[1], 318.15 K, x1 = 0.5111 | – | 9.19e-06
[1], 318.15 K, x1 = 0.5267 | – | 9.13e-06
[1], 318.15 K, x1 = 0.536 | – | 9.09e-06
[1], 318.15 K, x1 = 0.5637 | – | 8.91e-06
[1], 318.15 K, x1 = 0.5859 | – | 8.75e-06
[1], 318.15 K, x1 = 0.639 | – | 8.21e-06
[1], 318.15 K, x1 = 0.6902 | – | 7.6e-06
[1], 318.15 K, x1 = 0.7388 | – | 6.82e-06
[1], 318.15 K, x1 = 0.7922 | – | 5.79e-06
[1], 318.15 K, x1 = 0.8429 | – | 4.71e-06
[1], 318.15 K, x1 = 0.8913 | – | 3.45e-06
[1], 318.15 K, x1 = 0.9414 | – | 2.04e-06
[2], 299.15 K, x1 = 0.0689 | 0.588 | –
[2], 299.15 K, x1 = 0.1401 | 1.06 | –
[2], 299.15 K, x1 = 0.2146 | 1.48 | –
[2], 299.15 K, x1 = 0.2869 | 1.8 | –
[2], 299.15 K, x1 = 0.3549 | 2 | –
[2], 299.15 K, x1 = 0.4172 | 2.12 | –
[2], 299.15 K, x1 = 0.4738 | 2.17 | –
[2], 299.15 K, x1 = 0.5242 | 2.16 | –
[2], 299.15 K, x1 = 0.5696 | 2.16 | –
[2], 299.15 K, x1 = 0.571 | 2.14 | –
[2], 299.15 K, x1 = 0.6322 | 2.04 | –
[2], 299.15 K, x1 = 0.6996 | 1.87 | –
[2], 299.15 K, x1 = 0.7701 | 1.61 | –
[2], 299.15 K, x1 = 0.8357 | 1.26 | –
[2], 299.15 K, x1 = 0.8964 | 0.893 | –
[2], 299.15 K, x1 = 0.9485 | 0.453 | –
[2], 318.15 K, x1 = 0.0612 | 0.52 | –
[2], 318.15 K, x1 = 0.1263 | 0.916 | –
[2], 318.15 K, x1 = 0.2016 | 1.37 | –
[2], 318.15 K, x1 = 0.2725 | 1.68 | –
[2], 318.15 K, x1 = 0.3389 | 1.85 | –
[2], 318.15 K, x1 = 0.3986 | 1.97 | –
[2], 318.15 K, x1 = 0.4509 | 2.03 | –
[2], 318.15 K, x1 = 0.4911 | 2.05 | –
[2], 318.15 K, x1 = 0.511 | 2.05 | –
[2], 318.15 K, x1 = 0.5304 | 2.05 | –
[2], 318.15 K, x1 = 0.5696 | 2.03 | –
[2], 318.15 K, x1 = 0.6207 | 1.99 | –
[2], 318.15 K, x1 = 0.6806 | 1.88 | –
[2], 318.15 K, x1 = 0.7292 | 1.74 | –
[2], 318.15 K, x1 = 0.786 | 1.55 | –
[2], 318.15 K, x1 = 0.8292 | 1.35 | –
[2], 318.15 K, x1 = 0.8754 | 1.09 | –
[2], 318.15 K, x1 = 0.9191 | 0.805 | –
[2], 318.15 K, x1 = 0.9757 | 0.305 | –
